# Source: article PMC8355704, “Designing Modular Cell-free Systems for Tunable Biotransformation of L-phenylalanine to Aromatic Compounds” (Frontiers in Bioengineering and Biotechnology, 2021)
# How the values were obtained:
# Type in all cases: biochemical
# [1] = target: T1, phenylalanine ammonia lyase 2 (PAL2) (Arabidopsis thaliana, UniProt P45724); test: GC-MS detection of product cinnamic acid in cell-free expression mixture; conditions: unpurified E. coli CFPS lysate; control without plasmid
# T1 construct: codon-optimised gene in pET28a (NdeI/SalI), made by E. coli cell-free protein synthesis, not purified
# [2] = target: T2, phenylacrylic acid decarboxylase (PAD, containing two enzymes Fdc1 and Pad1) (Aspergillus niger, UniProt A2QHE5); test: GC-MS detection of product styrene in cell-free expression mixture; conditions: unpurified E. coli CFPS lysate; control without plasmid; Fdc1 coexpressed with Pad1
# T2 construct: codon-optimised Fdc1 and Pad1 genes in pET28a, coexpressed by E. coli cell-free protein synthesis, not purified; with Flavin prenyltransferase PAD1, mitochondrial
# [3] = target: T3, styrene monooxygenase (SMO, consisting of two subunit enzymes StyA and StyB) (Pseudomonas sp., UniProt O50214); test: GC-MS detection of product styrene oxide in cell-free expression mixture; conditions: unpurified E. coli CFPS lysate; control without plasmid; StyA coexpressed with StyB; NADH from lysate
# T3 construct: pET28a-StyA and pET28a-StyB coexpressed by E. coli cell-free protein synthesis, two separate chains, not purified; with Styrene monooxygenase StyB (NADH-flavin oxidoreductase component)
# T3 sequence (O50214 1-415): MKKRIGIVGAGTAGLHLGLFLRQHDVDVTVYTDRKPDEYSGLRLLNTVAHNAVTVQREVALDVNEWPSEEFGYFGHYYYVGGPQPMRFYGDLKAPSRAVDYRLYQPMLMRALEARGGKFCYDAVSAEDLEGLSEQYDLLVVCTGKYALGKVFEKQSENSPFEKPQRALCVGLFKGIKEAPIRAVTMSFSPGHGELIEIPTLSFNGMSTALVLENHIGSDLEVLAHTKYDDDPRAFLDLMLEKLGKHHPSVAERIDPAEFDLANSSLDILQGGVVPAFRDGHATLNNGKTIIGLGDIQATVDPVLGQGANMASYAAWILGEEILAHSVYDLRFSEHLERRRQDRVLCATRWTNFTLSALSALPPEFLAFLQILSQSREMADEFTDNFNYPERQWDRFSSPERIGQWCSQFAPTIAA
# [4] = target: T4, styrene oxide isomerase (StyC, SOI) (Pseudomonas sp. VLB120, UniProt O50216); test: GC-MS detection of product phenylacetaldehyde in cell-free expression mixture; conditions: unpurified E. coli CFPS lysate; control without plasmid
# T4 construct: gene stdC; codon-optimised gene in pET28a, made by E. coli cell-free protein synthesis, not purified; membrane protein
# T4 sequence (O50216 1-169): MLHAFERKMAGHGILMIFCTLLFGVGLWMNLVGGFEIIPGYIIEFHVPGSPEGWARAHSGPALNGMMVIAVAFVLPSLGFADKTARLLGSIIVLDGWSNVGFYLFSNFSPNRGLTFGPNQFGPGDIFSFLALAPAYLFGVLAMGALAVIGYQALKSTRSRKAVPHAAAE
# T1 sequence (P45724 whole entry): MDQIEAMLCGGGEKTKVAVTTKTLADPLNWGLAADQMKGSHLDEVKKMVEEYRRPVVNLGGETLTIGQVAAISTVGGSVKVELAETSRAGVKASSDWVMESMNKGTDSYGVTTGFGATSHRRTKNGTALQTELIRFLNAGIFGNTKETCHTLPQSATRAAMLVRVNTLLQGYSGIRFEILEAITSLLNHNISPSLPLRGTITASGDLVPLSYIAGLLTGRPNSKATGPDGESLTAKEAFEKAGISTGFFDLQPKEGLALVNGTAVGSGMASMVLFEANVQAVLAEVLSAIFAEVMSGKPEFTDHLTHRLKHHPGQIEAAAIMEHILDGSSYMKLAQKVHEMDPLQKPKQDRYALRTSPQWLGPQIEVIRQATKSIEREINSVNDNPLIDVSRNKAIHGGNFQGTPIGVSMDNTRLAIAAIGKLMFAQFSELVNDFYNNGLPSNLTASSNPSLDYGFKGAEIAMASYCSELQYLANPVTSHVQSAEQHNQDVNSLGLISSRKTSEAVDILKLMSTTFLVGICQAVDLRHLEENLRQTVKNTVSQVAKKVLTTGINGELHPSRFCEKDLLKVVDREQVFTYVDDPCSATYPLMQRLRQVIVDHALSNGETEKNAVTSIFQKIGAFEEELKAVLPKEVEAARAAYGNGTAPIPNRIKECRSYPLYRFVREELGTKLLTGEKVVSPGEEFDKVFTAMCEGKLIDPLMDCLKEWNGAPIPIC
smiles,measurement,setting,value
"N[C@@H](Cc1ccccc1)C(=O)O [compound 1, L-phenylalanine]",GC-MS detection of product cinnamic acid in cell-free expression mixture,[1],each target compound was detected by GC-MS
"O=C(O)/C=C/c1ccccc1 [compound 2, cinnamic acid]",GC-MS detection of product styrene in cell-free expression mixture,[2],the conversion of cinnamic acid to styrene requires two enzymes Fdc1 and Pad1
"C=Cc1ccccc1 [compound 3, styrene]",GC-MS detection of product styrene oxide in cell-free expression mixture,[3],two subunit enzymes StyA and StyB to oxidize styrene to styrene oxide
"c1ccc(C2CO2)cc1 (stereo not shown) [compound 4, styrene oxide]",GC-MS detection of product phenylacetaldehyde in cell-free expression mixture,[4],all cell-free expressed enzymes were active to convert their substrates to the corresponding products
